Source: patent EP3981864A1, “DETERGENT COMPOSITION” (priority 2020, dated 2022)

Columns and labels:
[1] = tested on: Solanum lycopersicum αDOX (SEQ ID NO: 8), fatty acid alpha-dioxygenase, Q5WM33, N-terminal His-tag variant SEQ ID NO: 263 (comparative); experiment: Alpha-dioxygenase activity assay (oxygen consumption, TON); type: biochemical; settings: fatty acid 100 µM, enzyme 6 ppm, 50 mM HEPES pH 9.0, 37°C; initial rate of oxygen consumption / enzyme concentration
From the text: Solanum lycopersicum αDOX (SEQ ID NO: 8) is a fatty acid alpha-dioxygenase that converts fatty acids into the corresponding 2-hydroperoxy fatty acids and is included as a comparative example of the present invention. A codon optimized gene (SEQ ID NO: 262) encoding for an alpha-dioxygenase variant (SEQ ID NO: 263), including an N-terminal amino acid sequence containing a His-tag was designed and synthesized by Genscript. After gene synthesis, the protein was expressed and purified. In brief, the complete synthetic gene sequence was subcloned into a pET30a vector using the NdeI/HindIII cloning sites. For heterologous expression, Escherichia coli BL21 (DE3) cells were transformed with the recombinant plasmid and a single colony was inoculated into LB medium containing kanamycin (50 mg/L). A pre-starter culture was then inoculated into flasks containing Magic Media (Thermo Fisher, Catalog # K6803) supplemented with kanamycin (50 mg/L) and incubated at 16 °C for 72 h. At an OD600nm = 0.5 - 1.0, 5-aminolevulinic acid (final concentration 0.5 mM) was added. Cells were harvested by centrifugation at 5000 rpm and 4°C and the pellet was lysed using a bacterial cell lysis buffer (B-PER - Themo Fisher, Waltham, MA). After centrifugation, the supernatant was collected, and the protein was purified by one-step purification using HisPur™ Ni-NTA Spin Columns (Thermo Scientific, Catalog # 88226) and standard protocols known in the art. The protein was concentrated using a 10 kDa MW cutoff Amicon Ultra centrifugal filter unit (Millipore Sigma, Catalog# UFC901024), followed by desalting using a disposable PD-10 desalting column (GE Healthcare Life Sciences, Catalog# 17085101) and a buffer containing 50 mM Tris-HCl, 500 mM NaCl, and 10% Glycerol at pH 8.0. […]
Reactions with alpha-dioxygenases were performed as follows. […] The reaction was incubated for up to 10 minutes at 37°C with 200 rpm agitation and the conversion was monitored using an oxygen sensor. The TON (in s-1) were calculated as the ratio between the initial rate of oxygen consumption (in µM/s) and the concentration of enzyme (in µM). […]

[2] = target: T1, Arabidopsis thaliana αDOX (SEQ ID NO: 10), fatty acid alpha-dioxygenase, Q9C9U3, variant with N-terminal His-tag, MBP tag and TEV site SEQ ID NO: 267 (comparati (Arabidopsis thaliana, UniProt Q9C9U3)); experiment: as above; type: biochemical; settings: fatty acid 100 µM, enzyme 6 ppm, 50 mM HEPES pH 9.0, 37°C; initial rate of oxygen consumption / enzyme concentration
T1 construct: His-tag (N); MBP tag (N); TEV protease cleavage site (N); made in house; host or cells: Escherichia coli BL21 (DE3), modified pET28a
T1 sequence (Q9C9U3 21-631): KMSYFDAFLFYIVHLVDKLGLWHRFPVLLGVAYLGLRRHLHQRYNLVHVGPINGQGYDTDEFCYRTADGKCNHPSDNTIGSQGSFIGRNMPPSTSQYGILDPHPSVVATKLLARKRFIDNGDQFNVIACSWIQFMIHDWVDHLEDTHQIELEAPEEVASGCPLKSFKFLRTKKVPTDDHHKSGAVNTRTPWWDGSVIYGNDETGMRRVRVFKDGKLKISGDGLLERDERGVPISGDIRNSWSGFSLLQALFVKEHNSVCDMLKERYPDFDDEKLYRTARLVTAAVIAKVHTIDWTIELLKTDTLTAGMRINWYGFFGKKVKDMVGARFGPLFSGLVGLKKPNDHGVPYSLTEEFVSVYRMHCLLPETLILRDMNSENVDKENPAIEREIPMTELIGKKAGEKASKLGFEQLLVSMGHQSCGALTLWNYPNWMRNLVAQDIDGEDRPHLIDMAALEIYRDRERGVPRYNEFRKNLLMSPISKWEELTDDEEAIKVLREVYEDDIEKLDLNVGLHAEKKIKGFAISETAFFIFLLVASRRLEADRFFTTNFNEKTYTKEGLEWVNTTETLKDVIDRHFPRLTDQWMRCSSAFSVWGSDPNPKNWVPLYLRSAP
From the text: Arabidopsis thaliana αDOX (SEQ ID NO: 10) is a fatty acid alpha-dioxygenase that converts fatty acids into the corresponding 2-hydroperoxy fatty acids and is included as a comparative example of the present invention. A codon optimized gene (SEQ ID NO: 266) encoding for an alpha-dioxygenase variant was designed and synthesized by Genscript. After synthesis, the gene was cloned into a modified version of pET28a, such as the final plasmid encoded for a αDOX variant including an N-terminal amino acid sequence containing a His-tag, an MBP tag, and a TEV protease cleavage site (SEQ ID NO: 267). For heterologous expression, Escherichia coli BL21 (DE3) cells were transformed with the recombinant plasmid and a single colony was inoculated into LB medium containing kanamycin (50 mg/L). A pre-starter culture was then inoculated into flasks containing TB Media supplemented with kanamycin (50 mg/L) and incubated at 37 °C. At an OD600nm about 3.8, IPTG (final concentration 0.1 mM) and 5-aminolevulinic acid (final concentration 0.25 mM) were added to the culture and further incubated at 16 °C for 16 h. Cells were harvested by centrifugation and the pellet was lysed. After centrifugation, the supernatant was collected, and the protein was purified by one-step purification using Ni-NTA affinity chromatography and standard protocols known in the art. The protein was stored in 1×PBS buffer containing 10% Glycerol and at pH 7.4. The purified enzyme was stored at -80 °C until use.
Reactions with alpha-dioxygenases were performed as follows. An aliquot of fatty acid in ethanol (final concentration 100 µM) was resuspended in buffer (50 mM HEPES at pH 9.0) in a scintillation vial. The reaction was started by addition of enzyme (final concentration 6 ppm). The reaction was incubated for up to 10 minutes at 37°C with 200 rpm agitation and the conversion was monitored using an oxygen sensor. The TON (in s-1) were calculated as the ratio between the initial rate of oxygen consumption (in µM/s) and the concentration of enzyme (in µM). […]

CCCCCCCC/C=C\CCCCCCCC(=O)O [Oleic Acid]
Oleic Acid, TON [1]: 0.00 s⁻¹ | Oleic Acid, TON [2]: 0.13 s⁻¹

CCCCCCCCCCCCCCCCCC(=O)O [Stearic Acid]
Stearic Acid, TON [1]: 0.12 s⁻¹ | Stearic Acid, TON [2]: 0.13 s⁻¹

CCCCCCCCCCCCCCCC(=O)O [Palmitic Acid]
Palmitic Acid, TON [1]: 0.00 s⁻¹ | Palmitic Acid, TON [2]: 0.54 s⁻¹
